The inhibition is how much of the control response was suppressed. By IC50 is commonly meant the midpoint of a concentration-inhibition curve.

Here are results for 3 compounds from patent publication US4532254A, “Inhibitor of aldose reductase” (Kaken Pharmaceutical Co., Ltd., priority 1983, dated 1985).

Where two headings read alike, the source gives them in different places.

For one test, the target named is T1, bovine lens AR (Bos taurus, UniProt P16116).
T1 construct: Bovine eyes were obtained from a local abattoir, and the lenses were removed and frozen until needed; from tissue; host or cells: bovine lens from a local abattoir; enzyme purified by ammonium sulfate, DEAE-Sephacel, Matrex gel red A and Sephadex G-75
Description: Inhibition of bovine lens aldose reductase (BLAR), NADPH oxidation at 340 nm. The settings on record: for inhibition at 10 µM: 10^-5 M; for inhibition at 10 µM / inhibition at 1 µM / inhibition at 0.1 µM: read-out: Inhibition against enzyme activity (%); for inhibition at 1 µM: 10^-6 M; for inhibition at 0.1 µM: 10^-7 M; for IC50: Table 2, IC50 in M multiplied by 10^6. Type of test: biochemical. The procedure:
(§1) The inhibitory activities against AR of LARI-1, LARI-2, LARI-3 and LARI-4 were determined according to the following method.
(§2) In Recipe Example, the followings were used. NADPH was purchased from the Oriental Yeast Co., Ltd. DL-Glyceraldehyde and quercitrin were purchased from Nakarai Chemicals, Ltd. DEAE-Sephacel and Sephadex G-75 were purchased from Pharmacia Fine Chemicals. Matrex gel red A was purchased from the Amicon Co. All other chemicals were of the highest grade commercially available.
(§3) Rat lenses were removed from eyes of rats of the Wistar strain weighing 200 to 250 g. Bovine eyes were obtained from a local abattoir, and the lenses were removed and frozen until needed.
(§4) Usually a 10^-3 M solution was prepared and diluted to the desired concentrations with propylene glycol. To the reaction mixture were added aliquots of the diluted solution to yield concentrations of 10^-8 M to 10^-5 M and a propylene glycol concentration of 1%.
(§5) AR assays were conducted according to the procedure of Hayman and Kinoshita (J. Biol. Chem. 240, p. 877 (1965)), except for the addition of ammonium sulfate instead of lithium sulfate to the reaction mixture. Assays were performed at 30° C. in 0.1M sodium phosphate buffer (pH 6.2) containing 0.4M ammonium sulfate, 10 mM DL-glyceraldehyde, 0.16 mM NADPH and the enzyme (0.010 to 0.016 unit) in a total volume of 1.0 ml. The effects of inhibitors on the enzyme activity were determined in the reaction mixture containing 10 μl. of each inhibitor solution at the desired concentrations. The blank reference to correct for non-specific reduction of NADPH contained all of the above compounds except DL-glyceraldehyde. The reaction was initiated by the addition of DL-glyceraldehyde, and the rate of NADPH oxidation was followed by recording the decrease in absorbance at 340 nm on a Gilford model 250 spectrophotometer.
(§6) BLAR and RLAR were purified according to the method of Inagaki et al (Archs Biochem. Biophys. 216, p. 337 (1982)). Briefly, a 40 to 75% ammonium sulfate fraction was subjected to chromatography on DEAE-Sephacel, followed by two column chromatographic steps, i.e. affinity chromatography using Matrex gel red A and gel filtration on Sephadex G-75.
(§7) The concentration of inhibitor required for eliciting a 50% inhibition (IC50) was determined according to the method of Kador et al (Docum. Ophthal. Proc. Series 18, p. 117 (1979)).

The next test has as its target T2, rat lens AR (Rattus norvegicus, UniProt P07943).
T2 construct: Rat lenses were removed from eyes of rats of the Wistar strain; from tissue; host or cells: lens of Wistar rats; enzyme purified by ammonium sulfate, DEAE-Sephacel, Matrex gel red A and Sephadex G-75
Description: Inhibition of rat lens aldose reductase (RLAR), NADPH oxidation at 340 nm. Type of test: biochemical, rat (Wistar strain). The settings on record: for inhibition at 10 µM: 10^-5 M; for inhibition at 10 µM / inhibition at 1 µM / inhibition at 0.1 µM: read-out: Inhibition against enzyme activity (%); for inhibition at 1 µM: 10^-6 M; for inhibition at 0.1 µM: 10^-7 M. The procedure:
as §1, §2, §3, §4, §5, §6, §7

Where [1] appears, read: Table 2, IC50 in M multiplied by 10^6, read-out: IC50 (M) × 10^6.
Where [2] appears, read: read-out: IC50 (inhibition of RLAR).

For `COc1c(OC)c(OC)c2c(=O)cc(-c3ccc(O)cc3)oc2c1OC` [LARI-2, 4'-hydroxy-5,6,7,8-tetramethoxyflavone], on bovine lens AR, the inhibition at 10 µM is 94%, the inhibition at 1 µM worked out at 80%, the inhibition at 0.1 µM stood at 24% and the IC50 was 290 nM. On rat lens AR, the inhibition at 10 µM is 91%, the inhibition at 1 µM came to 81% and the inhibition at 0.1 µM stood at 44%. For the same compound, the IC50 at rat lens AR (setting [1]) worked out at 1.6e-07 M. On rat lens AR (setting [2]), the IC50 was 1.6e-07 M.
As for `COc1c(O)c(OC)c2c(=O)cc(-c3ccc(O)cc3)oc2c1OC` [LARI-3, 4',6-dihydroxy-5,7,8-trimethoxyflavone], at bovine lens AR, the inhibition at 10 µM is 95%, the inhibition at 1 µM amounted to 70%, the inhibition at 0.1 µM was 18% and inhibition was half-maximal at 420 nM (IC50). In addition, on rat lens AR, the inhibition at 10 µM is 92%, the inhibition at 1 µM worked out at 74% and the inhibition at 0.1 µM stood at 36%. Also, the half-maximal inhibitory concentration (IC50) on rat lens AR (setting [1]) is 2.5e-07 M. In addition, the half-maximal inhibitory concentration (IC50) at rat lens AR (setting [2]) stood at 2.5e-07 M.
Take `COc1c(O)c(OC)c2c(=O)cc(-c3ccc(O)c(O)c3)oc2c1OC` [LARI-1, 3',4',6-trihydroxy-5,7,8-trimethoxyflavone]: on bovine lens AR, the inhibition at 10 µM came out at 100%, the inhibition at 1 µM is 91%, the inhibition at 0.1 µM came out at 35% and the IC50 was 180 nM. In addition, on rat lens AR, the inhibition at 10 µM came out at 96%, the inhibition at 1 µM is 92% and the inhibition at 0.1 µM came out at 73%. The IC50 on rat lens AR (setting [1]) is 3.6e-08 M. Also, the half-inhibitory concentration (IC50) on rat lens AR (setting [2]) was determined as 3.6e-08 M.
